The assay has as its system Cdc2 (Cdk1) tyrosine 15-phosphorylation. Description: Cdc2 (Cdk1) tyrosine 15-phosphorylation-inhibitory effect in WiDr cells + gemcitabine (ELISA). In kind it is cell-based. The following applies: Homo sapiens, gemcitabine 100 nM for 24 hours, then test compound with nocodazole for 8 hours, read-out: Cdc2-Y15 Phosphorylation-Inhibitory Effect (WiDr, + gemcitabine) (EC50). An excerpt: Pharmaceutical Text 2 (Method of Determining Drug Potency in Cells (Cdc2 (Cdk1) Tyrosine 15-Phosphorylation-Inhibitory Effect))
Fetal bovine serum (FBS) was obtained from Morgate; media RPMI1640 and DMEM were from Invitrogen; camptothecin was from Sigma; gemcitabine was from Nippon Eli Lilly; nocodazole and protease inhibitor cocktail were from Sigma; rabbit anti-Cdc2 antibody and mouse anti-Cdc2 antibody were from Santa Cruz Biotechnology; rabbit anti-tyrosine 15-phosphorylated Cdc2 antibody and horseradish peroxidase-labeled anti-mouse IgG antibody were from Cell Signaling Technology; sure blue reserve TMB peroxidase substrate was from Kirkegaard and Perry Laboratories. […]
In the method of using WiDr cells, the cells were suspended in DMEM containing 10% FBS, and the cell suspension was applied to a 96-well Nunclondelta-processed plastic plate in an amount of 2000 cells/100 μL/well, in which the cells were incubated overnight in 5% CO2-95% air at 37° C. […] Cdc2 was determined through ELISA as follows: A rabbit anti-Cdc2 antibody solution, which had been diluted 200-fold with 50 mM carbonate-bicarbonate buffer (pH 9.6), was applied to a 96-well maxisorp plastic plate in an amount of 50 μL/well, and statically kept overnight at 4° C. so as to fix the antibody on the plate. […]

Experimental findings from patent publication US7834019B2, “Substituted pyrazolo[3,4-d]pyrimidinone derivatives” (Banyu Pharmaceutical Co., Ltd., priority 2006, dated 2010) are described below.

Each structure is given as a SMILES string.

What is called EC50 is the concentration that produces a half-maximal response.

As for `C=CCn1c(=O)c2cnc(Nc3ccc(N4CCN(C)CC4)cc3)nc2n1-c1cccc(C(C)(C)O)n1` [Example 53, 2-allyl-1-[6-(1-hydroxy-1-methylethyl)pyridin-2-yl]-6-{[4-(4-methylpiperazin-1-yl)phenyl]amino}-1,2-dihydro-3H-pyrazolo[3,4-d]pyrimidin-3-one], the EC50 is 119 nM.
